From ChEMBL document CHEMBL1158470, “9-(Arenethenyl)purines as dual Src/Abl kinase inhibitors targeting the inactive conformation: design, synthesis, and biological evaluation” (J Med Chem, 2009)
Active and inactive are the calls of the source. The calls are words filed in the database; no cut-off is given here.

Tests used:
K562 = experiment: Antiproliferative activity against human K562 cells after 3 days by MTS assay
[1] = Antiproliferative activity against mouse BA/F3 cells after 3 days by MTS assay
[2] = Clearance in CD rat at 5 mg/kg, iv; format: ADME, organism-based; parameters: dose 5 mg/kg, route intravenous; details: in vivo
[3] = Volume of distribution in CD rat at 5 mg/kg, iv; format: ADME, organism-based; parameters: dose 5 mg/kg, route intravenous; details: in vivo
[4] = Half life in CD rat at 5 mg/kg, iv; format: ADME, organism-based; parameters: dose 5 mg/kg, route intravenous; details: in vivo
[5] = target: Proto-oncogene tyrosine-protein kinase Src (Homo sapiens, UniProt P12931)
Description: Inhibition of human Src kinase by TR-FRET assay

[6] = target: Tyrosine-protein kinase ABL1 (Homo sapiens, UniProt P00519)
Description: Inhibition of wild type human Abl kinase by TR-FRET assay

[7] = Cmax in CD rat at 15 mg/kg, po; format: ADME, organism-based; parameters: dose 15 mg/kg, route oral; details: in vivo
[8] = Tmax in CD rat at 15 mg/kg, po; format: ADME, organism-based; parameters: dose 15 mg/kg, route oral; details: in vivo
[9] = Antiproliferative activity against mouse BA/F3 cells expressing wild type Bcr-Abl after 3 days by MTS assay
BaF3 [10] = experiment: Antitumor activity against mouse BA/F3 cells expressing wild type Bcr-Abl xenografted in CB17 SCID mouse assessed as median survival time at 75 mg/kg, po administered on day 3 once daily for 19 days relative to control; format: functional, organism-based; parameters: dose 75 mg/kg
BaF3 [11] = experiment: Antitumor activity against mouse BA/F3 cells expressing wild type Bcr-Abl xenografted in CB17 SCID mouse assessed as increase in mouse survival at 75 mg/kg, po administered on day 3 once daily for 19 days relative to control; format: functional, organism-based; parameters: dose 75 mg/kg
[12] = AUC (0 to 24 hrs) in CD rat at 15 mg/kg, po; format: ADME, organism-based; parameters: time < 24 hr, dose 15 mg/kg, route oral; details: plasma
[13] = AUC (0 to 24 hrs) in mouse at 10 mg/kg, po; format: ADME, organism-based; parameters: time < 24 hr, dose 10 mg/kg, route oral; details: plasma
[14] = Cmax in mouse at 10 mg/kg, po; format: ADME, organism-based; parameters: dose 10 mg/kg, route oral; details: in vivo
[15] = Tmax in mouse at 10 mg/kg, po; format: ADME, organism-based; parameters: dose 10 mg/kg, route oral; details: in vivo
[16] = Oral bioavailability in CD rat at 15 mg/kg; format: ADME, organism-based; details: in vivo
[17] = Oral bioavailability in mouse at 10 mg/kg; format: ADME, organism-based; details: in vivo
[18] = Antitumor activity against mouse BA/F3 cells expressing wild type Bcr-Abl xenografted in CB17 SCID mouse assessed as median survival time at 10 mg/kg, po administered on day 3 once daily for 19 days; format: functional, BaF3
[19] = Antitumor activity against mouse BA/F3 cells expressing wild type Bcr-Abl xenografted in CB17 SCID mouse assessed as increase in mouse survival at 10 mg/kg, po administered on day 3 once daily for 19 days; format: functional; details: BaF3
NIH3T3 [20] = experiment: Antitumor activity against in po dosed mouse NIH/3T3 cells expressing Src Y527F mutant xenografted in CD1 nude mouse assessed as tumor shrinkage administered daily for 21 days; format: functional, organism-based
NIH3T3 [21] = experiment: Antitumor activity against in mouse NIH/3T3 cells expressing Src Y527F mutant xenografted in CD1 nude mouse assessed as complete tumor regression at 100 mg/kg, po administered daily for 21 days; format: functional, organism-based; parameters: dose 100 mg/kg
[22] = Antiproliferative activity against mouse BA/F3 cells expressing Bcr-Abl T315I mutant after 3 days by MTS assay; details: BaF3, 72 h
[23] = Antiproliferative activity against mouse BA/F3 cells expressing Bcr-Abl L248R mutant after 3 days by MTS assay; details: BaF3, 72 h
[24] = Antiproliferative activity against mouse BA/F3 cells expressing Bcr-Abl G250E mutant after 3 days by MTS assay; details: BaF3, 72 h
[25] = Antiproliferative activity against mouse BA/F3 cells expressing Bcr-Abl Q252H mutant after 3 days by MTS assay; details: BaF3, 72 h
[26] = Antiproliferative activity against mouse BA/F3 cells expressing Bcr-Abl Y253H mutant after 3 days by MTS assay; details: BaF3, 72 h
[27] = Antiproliferative activity against mouse BA/F3 cells expressing Bcr-Abl E255K mutant after 3 days by MTS assay; details: BaF3, 72 h

Tyrosine-protein kinase ABL1, sequence (P00519 whole entry): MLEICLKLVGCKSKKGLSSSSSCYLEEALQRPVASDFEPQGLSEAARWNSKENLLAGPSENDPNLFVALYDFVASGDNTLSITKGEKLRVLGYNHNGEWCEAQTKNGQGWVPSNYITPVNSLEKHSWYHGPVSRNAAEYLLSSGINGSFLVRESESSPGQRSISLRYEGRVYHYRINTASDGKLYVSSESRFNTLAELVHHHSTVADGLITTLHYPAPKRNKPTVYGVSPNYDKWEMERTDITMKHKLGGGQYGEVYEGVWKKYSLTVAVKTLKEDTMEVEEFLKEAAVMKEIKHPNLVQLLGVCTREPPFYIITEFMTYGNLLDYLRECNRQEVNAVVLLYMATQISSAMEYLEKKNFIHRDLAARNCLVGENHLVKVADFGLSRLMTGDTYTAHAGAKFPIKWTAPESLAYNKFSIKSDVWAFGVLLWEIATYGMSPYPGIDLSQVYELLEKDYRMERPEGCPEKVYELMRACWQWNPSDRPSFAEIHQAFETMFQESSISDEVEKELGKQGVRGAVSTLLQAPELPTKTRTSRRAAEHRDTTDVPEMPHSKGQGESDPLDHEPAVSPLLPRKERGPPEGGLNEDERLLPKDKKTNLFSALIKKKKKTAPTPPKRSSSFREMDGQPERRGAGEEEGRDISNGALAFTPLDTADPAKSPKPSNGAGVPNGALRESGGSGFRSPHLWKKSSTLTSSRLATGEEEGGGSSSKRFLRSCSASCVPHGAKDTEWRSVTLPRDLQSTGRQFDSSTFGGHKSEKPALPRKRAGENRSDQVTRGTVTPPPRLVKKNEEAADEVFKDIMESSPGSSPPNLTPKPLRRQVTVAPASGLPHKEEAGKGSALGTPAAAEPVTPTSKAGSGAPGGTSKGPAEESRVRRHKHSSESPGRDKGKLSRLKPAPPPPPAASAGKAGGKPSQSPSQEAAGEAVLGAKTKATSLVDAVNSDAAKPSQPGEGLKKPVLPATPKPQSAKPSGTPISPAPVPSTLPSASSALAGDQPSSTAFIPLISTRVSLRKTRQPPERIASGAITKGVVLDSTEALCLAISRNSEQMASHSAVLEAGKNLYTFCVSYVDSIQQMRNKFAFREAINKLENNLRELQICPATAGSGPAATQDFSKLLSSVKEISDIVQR
Proto-oncogene tyrosine-protein kinase Src, sequence (P12931 2-536 limits assumed): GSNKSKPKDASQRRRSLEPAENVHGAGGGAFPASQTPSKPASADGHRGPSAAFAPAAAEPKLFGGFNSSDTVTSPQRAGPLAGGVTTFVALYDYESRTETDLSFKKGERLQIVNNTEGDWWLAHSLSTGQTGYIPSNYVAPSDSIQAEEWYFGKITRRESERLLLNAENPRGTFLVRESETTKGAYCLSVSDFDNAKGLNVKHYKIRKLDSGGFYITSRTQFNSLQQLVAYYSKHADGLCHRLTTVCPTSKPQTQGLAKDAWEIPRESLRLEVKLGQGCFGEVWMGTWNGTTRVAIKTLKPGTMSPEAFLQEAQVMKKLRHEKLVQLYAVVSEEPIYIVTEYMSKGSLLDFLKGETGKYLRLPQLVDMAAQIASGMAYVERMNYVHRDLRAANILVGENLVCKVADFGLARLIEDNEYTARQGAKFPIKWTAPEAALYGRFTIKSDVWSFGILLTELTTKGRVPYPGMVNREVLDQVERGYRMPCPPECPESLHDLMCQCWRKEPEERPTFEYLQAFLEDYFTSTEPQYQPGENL

Row | Structure (SMILES) | IC50 (K562; Homo sapiens, K562, 72 h) [nM] | clearance [2] [mL/min/kg] | Vd [3] [L/kg] | half-life [4] [h] | Cmax [7] [ng/mL] | Tmax [8] [h] | IC50 ([1]; Mus musculus, BaF3, 72 h) [nM] | also measured
1 | Cc1ccc(C(=O)Nc2ncc(C(C)(C)C)s2)cc1/C=C/n1cnc2c(NC3CC3)ncnc21 | 292 |  |  |  |  |  | 7120 | IC50 [5]: 310 nM; IC50 [6]: 267 nM
2 | Cc1ccc(C(=O)Nc2cc(C(C)(C)C)nn2C)cc1/C=C/n1cnc2c(NC3CC3)ncnc21 | 35 |  |  |  |  |  | 9030 | IC50 [6]: 146 nM
3 | Cc1ccc(NC(=O)c2cccc(C(F)(F)F)c2)cc1/C=C/n1cnc2c(Nc3ccncc3)ncnc21 | 3.7 | 16 | 9.01 | 6.7 | 483 | 6 | 635 | 
4 | Cc1ccc(NC(=O)c2cccc(C(F)(F)F)c2)cc1/C=C/n1cnc2c(NCCCN(C)C)ncnc21 |  |  |  |  |  |  |  | IC50 (K562; k562): Not Active; IC50 ([9]; baf3): Not Active; IC50 ([1]; baf3): Not Active; IC50 [5]: 159 nM; IC50 [6]: 157 nM
5 | Cc1cn(-c2cc(NC(=O)c3ccc(C)c(Nc4nccc(-c5cccnc5)n4)c3)cc(C(F)(F)F)c2)cn1 |  |  |  |  |  |  |  | Activity (BaF3 [10]): Active; Activity (BaF3 [11]): Active
6 | Cc1ccc(C(=O)Nc2cc(C(F)(F)F)ccn2)cc1/C=C/n1cnc2c(NC3CC3)ncnc21 | 6.1 | 0.667 | 0.34 | 5.7 | 23500 | 2 | 4890 | AUC(0-t) at 24 h [12]: 428000 ng·h/mL; AUC(0-t) at 24 h [13]: 21200 ng·h/mL; Cmax [14]: 3100 ng/mL; Tmax [15]: 2 h; bioavailability [16]: 116%; bioavailability [17]: 100%; MST [18]: 35 days; survival at 10 mg/kg [19]: 75%; Activity (NIH3T3 [20]): Dose-dependent effect; Activity (NIH3T3 [21]): Active; IC50 [22]: 2750 nM
7 | Cc1ccc(C(=O)Nc2cc(C(C)(C)C)on2)cc1/C=C/n1cnc2c(NC3CC3)ncnc21 | 15 | 15 | 4.87 | 3.7 | 1040 | 1 | > 10000 | AUC(0-t) at 24 h [12]: 7540 ng·h/mL; bioavailability [16]: 45%
8 | Cc1cn(-c2cc(NC(=O)c3ccc(C)c(/C=C/n4cnc5cncnc54)c3)cc(C(F)(F)F)c2)cn1 |  |  |  |  |  |  |  | IC50 ([9]; Mus musculus, BaF3, 72 h): 7 nM
9 | Cc1ccc(C(=O)Nc2cc(C(F)(F)F)ccn2)cc1/C=C/n1cnc2cncnc21 |  |  |  |  |  |  |  | IC50 ([9]; Mus musculus, BaF3, 72 h): 5 nM
10 | Cc1ccc(NC(=O)c2cccc(C(F)(F)F)c2)cc1/C=C/n1cnc2c(Nc3cccnc3)ncnc21 | 2.7 | 8.17 | 1.7 | 2.4 | 387 | 2 | > 10000 | IC50 ([9]; baf3): Not Active; AUC(0-t) at 24 h [12]: 3310 ng·h/mL; bioavailability [16]: 11%
11 | Cc1ccc(NC(=O)c2cccc(C(F)(F)F)c2)cc1/C=C/n1cnc2c(Nc3ccncn3)ncnc21 | 62 |  |  |  |  |  | 2070 | 
12 | Cc1ccc(NC(=O)c2cccc(C(F)(F)F)c2)cc1/C=C/n1cnc2c(Nc3ccc(P(C)(C)=O)cc3)ncnc21 | 0.95 | 13.2 | 3.54 | 3.1 | 63 | 1 | 7600 | AUC(0-t) at 24 h [12]: 146 ng·h/mL; bioavailability [16]: 0.8%
13 | CNc1ncnc2c1ncn2CCc1cc(NC(=O)c2cccc(C(F)(F)F)c2)ccc1C |  |  |  |  |  |  | 9680 | IC50 (K562; k562): Not Active; IC50 [5]: 300 nM
14 | Cc1ccc(NC(=O)c2cccc(C(F)(F)F)c2)cc1/C=C/n1cnc2c(Nc3ccccn3)ncnc21 | 181 |  |  |  |  |  | 6260 | IC50 [5]: 201 nM; IC50 [6]: 243 nM

The next lines start with results.

Row | IC50 (K562; Homo sapiens, K562, 72 h) [nM] | clearance [2] [mL/min/kg] | Vd [3] [L/kg] | half-life [4] [h] | Cmax [7] [ng/mL] | Tmax [8] [h] | Structure (SMILES) | IC50 ([1]; Mus musculus, BaF3, 72 h) [nM] | also measured
15 | 67 | 6.33 | 1.6 | 2.95 |  |  | CNc1ncnc2c1ncn2/C=C/c1cc(NC(=O)c2cccc(C(F)(F)F)c2)ccc1C | > 10000 | 
16 | 22 | 29.8 | 5.31 | 2.1 | 100 | 1 | Cc1ccc(C(=O)Nc2cccc(C(C)(C)C)c2)cc1/C=C/n1cnc2c(NC3CC3)ncnc21 | 2550 | AUC(0-t) at 24 h [12]: 297 ng·h/mL; bioavailability [16]: 3.5%
17 | 68 |  |  |  |  |  | Cc1ccc(C(=O)Nc2cc(C(F)(F)F)ccc2F)cc1/C=C/n1cnc2c(NC3CC3)ncnc21 | 7660 | IC50 [6]: 236 nM
18 | 17 |  |  |  |  |  | Cc1ccc(C(=O)Nc2cccc(C(F)(F)F)c2)cc1/C=C/n1cnc2c(NC3CC3)ncnc21 | 4350 | 
19 | 63 |  |  |  |  |  | Cc1ccc(C(=O)Nc2cccc(C(C)C)c2)cc1/C=C/n1cnc2c(NC3CC3)ncnc21 | 8320 | 
20 | 69 |  |  |  |  |  | Cc1ccc(C(=O)Nc2ccc(Cl)c(C(F)(F)F)c2)cc1/C=C/n1cnc2c(NC3CC3)ncnc21 | 2410 | 
21 | 14 |  |  |  |  |  | Cc1ccc(C(=O)Nc2cc(N3CCN(C)CC3)cc(C(F)(F)F)c2)cc1/C=C/n1cnc2c(NC3CC3)ncnc21 | 543 | 
22 | > 1000 |  |  |  |  |  | Cc1ccc(NC(=O)Nc2cccc(C(F)(F)F)c2)cc1/C=C/n1cnc2c(NC3CC3)ncnc21 |  | IC50 [5]: 517 nM
23 | 17 |  |  |  |  |  | Cc1ccc(C(=O)Nc2cc(N3CCOCC3)cc(C(F)(F)F)c2)cc1/C=C/n1cnc2c(NC3CC3)ncnc21 | 2520 | 
24 | 95 | 3.17 | 1.08 | 4 | 2610 | 1 | Cc1ccc(NC(=O)c2cccc(C(F)(F)F)c2)cc1/C=C/n1cnc2c(NC3CC3)ncnc21 | 7860 | AUC(0-t) at 24 h [12]: 32200 ng·h/mL; bioavailability [16]: 40%
25 | 4.3 | 1 | 0.78 | 8.3 | 1750 | 2 | Cc1cn(-c2cc(NC(=O)c3ccc(C)c(/C=C/n4cnc5c(NC6CC6)ncnc54)c3)cc(C(F)(F)F)c2)cn1 | 6460 | AUC(0-t) at 24 h [12]: 17200 ng·h/mL; AUC(0-t) at 24 h [13]: 6930 ng·h/mL; Cmax [14]: 1020 ng/mL; Tmax [15]: 1 h; bioavailability [16]: 7%; IC50 [22]: 422 nM; IC50 [23]: 64 nM; IC50 [24]: 63 nM; IC50 [25]: 42 nM; IC50 [26]: 44 nM; IC50 [27]: 24 nM
26 | 5.4 |  |  |  |  |  | Cc1ccc(C(=O)Nc2cc(-n3ccnc3)cc(C(F)(F)F)c2)cc1/C=C/n1cnc2c(NC3CC3)ncnc21 | 7120 | IC50 [22]: 298 nM
